Assay results: US10927389B2, “Method of producing chemical substance by continuous fermentation” (Toray Industries, Inc., priority 2014, dated 2021)

How the values were obtained:
[1] = test system: Pichia mexicana NBRC 10320 strain; experiment: Acetone resistance test; assay type: cell-based; details: strain NBRC 10320; 4% (v/v) acetone in YPAD medium, 30° C., 40 hours; absorbance at 600 nm with acetone ÷ without ×100
Description: (§1) To 5 ml of YPAD medium, 200 μL of acetone was added so that the final concentration became 4% (v/v). […] Absorbance at 600 nm of YPAD medium (with acetone)÷absorbance at 600 nm of YPAD medium×100 (7)
As a result, the Pichia mexicana NBRC 10320 strain was found not to be a vanillin-resistant yeast, but found to be an acetone-resistant yeast.

[2] = test system: Saccharomyces cerevisiae NITE BP-1089 strain; experiment: Acetone resistance test; assay type: cell-based; details: strain BP-1089; 4% (v/v) acetone in YPAD medium, 30° C., 40 hours; absorbance at 600 nm with acetone ÷ without ×100
Description: as §1

[3] = test system: Saccharomyces cerevisiae NITE BP-1088 strain; experiment: Acetone resistance test; assay type: cell-based; details: strain BP-1088; 4% (v/v) acetone in YPAD medium, 30° C., 40 hours; absorbance at 600 nm with acetone ÷ without ×100
Description: as §1

[4] = test system: Saccharomyces cerevisiae NBRC 2260 strain; experiment: Acetone resistance test; assay type: cell-based; details: strain NBRC 2260; 4% (v/v) acetone in YPAD medium, 30° C., 40 hours; absorbance at 600 nm with acetone ÷ without ×100
Description: as §1

[5] = test system: Saccharomyces cerevisiae NITE BP-1087 strain; experiment: Acetone resistance test; assay type: cell-based; details: strain BP-1087; 4% (v/v) acetone in YPAD medium, 30° C., 40 hours; absorbance at 600 nm with acetone ÷ without ×100
Description: as §1

[6] = test system: Candida methanosorbosa BCRC 21489 strain; experiment: Acetone resistance test; assay type: cell-based; details: strain BCRC 21489; 4% (v/v) acetone in YPAD medium, 30° C., 40 hours; absorbance at 600 nm with acetone ÷ without ×100
Description: as §1

[7] = test system: Arxula adeninivorans NBRC 10858 strain; experiment: Acetone resistance test; assay type: cell-based; details: strain NBRC 10858; 4% (v/v) acetone in YPAD medium, 30° C., 40 hours; absorbance at 600 nm with acetone ÷ without ×100
Description: as §1

[8] = test system: Saccharomyces cerevisiae NBRC 2260/ΔPDC1::LDH strain; experiment: Acetone resistance test; assay type: cell-based; details: strain NBRC 2260 ΔPDC1::LDH; 4% (v/v) acetone in YPAD medium, 30° C., 40 hours; absorbance at 600 nm with acetone ÷ without ×100
Description: as §1

[9] = test system: Candida tropicalis NBRC 199 strain; experiment: Acetone resistance test; assay type: cell-based; details: strain NBRC 199; 4% (v/v) acetone in YPAD medium, 30° C., 40 hours; absorbance at 600 nm with acetone ÷ without ×100
Description: as §1

[10] = test system: Candida boidinii BCRC 22528 strain; experiment: Acetone resistance test; assay type: cell-based; details: strain BCRC 22528; 4% (v/v) acetone in YPAD medium, 30° C., 40 hours; absorbance at 600 nm with acetone ÷ without ×100
Description: as §1

[11] = test system: Saccharomyces cerevisiae NBRC 10505 strain; experiment: Acetone resistance test; assay type: cell-based; details: strain NBRC 10505; 4% (v/v) acetone in YPAD medium, 30° C., 40 hours; absorbance at 600 nm with acetone ÷ without ×100
Description: as §1

[12] = test system: Candida pignaliae NBRC 10307 strain; experiment: Acetone resistance test; assay type: cell-based; details: strain NBRC 10307; 4% (v/v) acetone in YPAD medium, 30° C., 40 hours; absorbance at 600 nm with acetone ÷ without ×100
Description: as §1

[13] = test system: Kluyveromyces marxianus NBRC 272 strain; experiment: Acetone resistance test; assay type: cell-based; details: strain NBRC 272; 4% (v/v) acetone in YPAD medium, 30° C., 40 hours; absorbance at 600 nm with acetone ÷ without ×100
Description: as §1

[14] = test system: Pichia stipitis BCRC 21777 strain; experiment: Acetone resistance test; assay type: cell-based; details: strain BCRC 21777; 4% (v/v) acetone in YPAD medium, 30° C., 40 hours; absorbance at 600 nm with acetone ÷ without ×100
Description: as §1

[15] = test system: Lindnera fabianii NBRC 1253 strain; experiment: Acetone resistance test; assay type: cell-based; details: strain NBRC 1253; 4% (v/v) acetone in YPAD medium, 30° C., 40 hours; absorbance at 600 nm with acetone ÷ without ×100
Description: as §1

[16] = test system: Saccharomyces cerevisiae NBRC 10505/ΔPDC1::LDH strain; experiment: Acetone resistance test; assay type: cell-based; details: strain NBRC 10505 ΔPDC1::LDH; 4% (v/v) acetone in YPAD medium, 30° C., 40 hours; absorbance at 600 nm with acetone ÷ without ×100
Description: as §1

[17] = test system: Saccharomyces cerevisiae NBRC 2260/ΔPDC1::LDH strain; details: strain NBRC 2260 ΔPDC1::LDH; vanillin 1 g/L in YPAD medium, 30° C., 40 hours; absorbance at 600 nm with vanillin ÷ without ×100
Description: (§2) The Saccharomyces cerevisiae NBRC 10505 strain was inoculated using a platinum loop to 20-ml test tubes each containing 5 ml of YPAD medium, and then cultured with shaking at 30° C. overnight (preculture). The YPAD medium had the following composition: 1% (w/v) yeast extract, 2% (w/v) bactopeptone, 2% (w/v) glucose, and 0.04% (w/v) adenine. A vanillin concentrate (200 g/L in DMSO) was prepared, and 25 μL of the vanillin concentrate was added to 5 ml of YPAD medium so that the final concentration became 1 g/L. To provide vanillin-free YPAD medium, 25 μl of DMSO alone was added to YPAD medium. The preculture liquid was inoculated to the YPAD medium (with vanillin) and the vanillin-free YPAD medium such that OD became 0.2, and culture was performed at 30° C. for 40 hours. After the culture, OD 600 nm of the culture liquid of each strain was measured, and a value was calculated according to Equation (6). Absorbance at 600 nm of YPAD medium (with vanillin)÷absorbance at 600 nm of YPAD medium×100 (6).

[18] = test system: Candida pignaliae NBRC 10307 strain; experiment: Vanillin resistance test; assay type: cell-based; details: strain NBRC 10307; vanillin 1 g/L in YPAD medium, 30° C., 40 hours; absorbance at 600 nm with vanillin ÷ without ×100
Description: (§3) The YPAD medium had the following composition: 1% (w/v) yeast extract, 2% (w/v) bactopeptone, 2% (w/v) glucose, and 0.04% (w/v) adenine. A vanillin concentrate (200 g/L in DMSO) was prepared, and 25 μL of the vanillin concentrate was added to 5 ml of YPAD medium so that the final concentration became 1 g/L. To provide vanillin-free YPAD medium, 25 μl of DMSO alone was added to YPAD medium. The preculture liquid was inoculated to the YPAD medium (with vanillin) and the vanillin-free YPAD medium such that OD became 0.2, and culture was performed at 30° C. for 40 hours. After the culture, OD 600 nm of the culture liquid of each strain was measured, and a value was calculated according to Equation (6). Absorbance at 600 nm of YPAD medium (with vanillin)÷absorbance at 600 nm of YPAD medium×100 (6).

[19] = test system: Saccharomyces cerevisiae NITE BP-1089 strain; experiment: Vanillin resistance test; assay type: cell-based; details: strain BP-1089; vanillin 1 g/L in YPAD medium, 30° C., 40 hours; absorbance at 600 nm with vanillin ÷ without ×100
Description: as §2

[20] = test system: Saccharomyces cerevisiae NBRC 10505/ΔPDC1::LDH strain; details: strain NBRC 10505 ΔPDC1::LDH; vanillin 1 g/L in YPAD medium, 30° C., 40 hours; absorbance at 600 nm with vanillin ÷ without ×100
Description: as §2

[21] = test system: Pichia stipitis BCRC 21777 strain; experiment: Vanillin resistance test; assay type: cell-based; details: strain BCRC 21777; vanillin 1 g/L in YPAD medium, 30° C., 40 hours; absorbance at 600 nm with vanillin ÷ without ×100
Description: as §3
The Pichia stipitis BCRC 21777 strain was tested by the same method as in Reference Example 5, and values were calculated according to Equation (6) and Equation (7) (Table 1).

[22] = test system: Kluyveromyces marxianus NBRC 272 strain; experiment: Vanillin resistance test; assay type: cell-based; details: strain NBRC 272; vanillin 1 g/L in YPAD medium, 30° C., 40 hours; absorbance at 600 nm with vanillin ÷ without ×100
Description: as §3
The Kluyveromyces marxianus NBRC 272 strain was tested by the same method as in Reference Example 5, and values were calculated according to Equation (6) and Equation (7) (Table 1).

[23] = test system: Saccharomyces cerevisiae NITE BP-1087 strain; experiment: Vanillin resistance test; assay type: cell-based; details: strain BP-1087; vanillin 1 g/L in YPAD medium, 30° C., 40 hours; absorbance at 600 nm with vanillin ÷ without ×100
Description: as §2

[24] = test system: Candida boidinii BCRC 22528 strain; experiment: Vanillin resistance test; assay type: cell-based; details: strain BCRC 22528; vanillin 1 g/L in YPAD medium, 30° C., 40 hours; absorbance at 600 nm with vanillin ÷ without ×100
Description: The Candida boidinii BCRC 22528 strain was tested by the same method as in Reference Example 5, and values were calculated according to Equation (6) and Equation (7) (Table 1).

[25] = test system: Candida methanosorbosa BCRC 21489 strain; experiment: Vanillin resistance test; assay type: cell-based; details: strain BCRC 21489; vanillin 1 g/L in YPAD medium, 30° C., 40 hours; absorbance at 600 nm with vanillin ÷ without ×100
Description: The Candida methanosorbosa BCRC 21489 strain was tested by the same method as in Reference Example 5, and values were calculated according to Equation (6) and Equation (7) (Table 1).

[26] = test system: Saccharomyces cerevisiae NBRC 10505 strain; experiment: Vanillin resistance test; assay type: cell-based; details: strain NBRC 10505; vanillin 1 g/L in YPAD medium, 30° C., 40 hours; absorbance at 600 nm with vanillin ÷ without ×100
Description: as §2

[27] = test system: Saccharomyces cerevisiae NBRC 2260 strain; experiment: Vanillin resistance test; assay type: cell-based; details: strain NBRC 2260; vanillin 1 g/L in YPAD medium, 30° C., 40 hours; absorbance at 600 nm with vanillin ÷ without ×100
Description: as §2

[28] = test system: Pichia mexicana NBRC 10320 strain; experiment: Vanillin resistance test; assay type: cell-based; details: strain NBRC 10320; vanillin 1 g/L in YPAD medium, 30° C., 40 hours; absorbance at 600 nm with vanillin ÷ without ×100
Description: The Pichia mexicana NBRC 10320 strain was tested by the same method as in Reference Example 5, and values were calculated according to Equation (6) and Equation (7) (Table 1).

[29] = test system: Arxula adeninivorans NBRC 10858 strain; experiment: Vanillin resistance test; assay type: cell-based; details: strain NBRC 10858; vanillin 1 g/L in YPAD medium, 30° C., 40 hours; absorbance at 600 nm with vanillin ÷ without ×100
Description: as §2
The Arxula adeninivorans NBRC 10858 strain was tested by the same method as in Reference Example 5, and values were calculated according to Equation (6) and Equation (7) (Table 1).

[30] = test system: Lindnera fabianii NBRC 1253 strain; experiment: Vanillin resistance test; assay type: cell-based; details: strain NBRC 1253; vanillin 1 g/L in YPAD medium, 30° C., 40 hours; absorbance at 600 nm with vanillin ÷ without ×100
Description: The Lindnera fabianii NBRC 1253 strain was tested by the same method as in Reference Example 5, and a value was calculated according to Equation (6) and Equation (7) (Table 1).

[31] = test system: Candida tropicalis NBRC 199 strain; experiment: Vanillin resistance test; assay type: cell-based; details: strain NBRC 199; vanillin 1 g/L in YPAD medium, 30° C., 40 hours; absorbance at 600 nm with vanillin ÷ without ×100
[32] = test system: Saccharomyces cerevisiae NITE BP-1088 strain; experiment: Vanillin resistance test; assay type: cell-based; details: strain BP-1088; vanillin 1 g/L in YPAD medium, 30° C., 40 hours; absorbance at 600 nm with vanillin ÷ without ×100
Description: as §2

CC(C)=O [Acetone, acetone]
Acetone resistance test result [1]: 100
Acetone resistance test result [2]: 7.2
Acetone resistance test result [3]: 7.5
Acetone resistance test result [4]: 86
Acetone resistance test result [5]: 10
Acetone resistance test result [6]: 74
Acetone resistance test result [7]: 22
Acetone resistance test result [8]: 84
Acetone resistance test result [9]: 100
Acetone resistance test result [10]: 49
Acetone resistance test result [11]: 8.8
Acetone resistance test result [12]: 1.3
Acetone resistance test result [13]: 87
Acetone resistance test result [14]: 1.8
Acetone resistance test result [15]: 111
Acetone resistance test result [16]: 8

COc1cc(C=O)ccc1O [Vanillin, vanillin]
Vanillin resistance test result [17]: 82
Vanillin resistance test result [18]: 1.9
Vanillin resistance test result [19]: 7.8
Vanillin resistance test result [20]: 6.2
Vanillin resistance test result [21]: 22
Vanillin resistance test result [22]: 100
Vanillin resistance test result [23]: 9.2
Vanillin resistance test result [24]: 66
Vanillin resistance test result [25]: 54
Vanillin resistance test result [26]: 6.8
Vanillin resistance test result [27]: 83
Vanillin resistance test result [28]: 11
Vanillin resistance test result [29]: 84
Vanillin resistance test result [30]: 95
Vanillin resistance test result [31]: 82
Vanillin resistance test result [32]: 8.5
